The text below walks through data of patent publication US20130072720A1, “PHARMACEUTICAL COMPOSITION FOR TREATMENT OF OSTEOARTHRITIS” (NATIONAL DEFENSE MEDICAL CENTER, priority 2011, published 2013).

Data set [1] has as its system inducible nitric oxide synthase (iNOS). Nature of the data set: TNF-α-induced iNOS expression in chondrocytes. The following applies: chondrocytes stimulated by TNF-α (5 ng/ml), after 48 hours, HS—Cf in different concentrations. In kind it is cell-based, porcine. The text has this: (§1) The following embodiments show suppression effect of HS—Cf on those factors involved in signaling pathways of TNF-α-induced IRF-1 expression and prevention effect of HS—Cf on TNF-mediated collagen loss and proteoglycan loss. All porcine chondrocytes used are obtained from the hind leg joints of pigs.
(§2) NO (nitric oxide) is generated by TNF-α-induced iNOS so that iNOS expression is correlated with NO production. HS—Cf in different concentrations are delivered to chondrocytes stimulated by TNF-α (5 ng/ml).

Data set [2] concerns NO (nitric oxide). Put plainly: NO production in TNF-α-stimulated chondrocytes. Format: cell-based, porcine. The following applies: chondrocytes stimulated by TNF-α (5 ng/ml), after 48 hours, HS—Cf in different concentrations.
From the text: as §1, §2

For data set [3], the system named is matrix metalloproteinase-1 (MMP-1). Nature of the data set: TNF-α-induced MMP-1 mRNA expression by Q-PCR. Format: cell-based. The following applies: porcine chondrocytes, HS—Cf 2 hours, then TNF-α (5 ng/ml) four hours. As to the method:
as §1
TNF-α-induced MMP-1 is one of the factors that damage and destroy cartilage. Mix HS—Cf in different concentrations with porcine chondrocytes and react for 2 hours. Then add TNF-α (5 ng/ml) to stimulate porcine chondrocytes for four hours. Next measure mRNA expression by real-time quantitative-polymerase chain reaction (Q-PCR).

The subject of data set [4] is matrix metalloproteinase-3 (MMP-3). Nature of the data set: TNF-α-induced MMP-3 mRNA expression by Q-PCR. The following applies: porcine chondrocytes, HS—Cf 2 hours, then TNF-α (5 ng/ml) four hours. In kind it is cell-based. As to the method:
as §1
TNF-α-induced MMP-3 is one of the factors that damage and destroy cartilage. Mix HS—Cf in different concentrations with porcine chondrocytes and react for 2 hours. Then add TNF-α (5 ng/ml) to stimulate porcine chondrocytes for four hours. Next measure mRNA expression by real-time quantitative-polymerase chain reaction (Q-PCR).

Data set [5] has as its system matrix metalloproteinase-13 (MMP-13). Put plainly: TNF-α-induced MMP-13 mRNA expression by Q-PCR. Format: cell-based. The following applies: porcine chondrocytes, HS—Cf 2 hours, then TNF-α (5 ng/ml) four hours. The procedure: as §1
Mix HS—Cf in different concentrations with porcine chondrocytes and react for 2 hours. Then add TNF-α (5 ng/ml) to stimulate cells for four hours. Next observe mRNA expression by real-time quantitative-polymerase chain reaction (Q-PCR).

Data set [6] has as its system ADAMTS-4, also called Aggrecanase-1. Put plainly: TNF-α-induced ADAMTS-4 mRNA expression by Q-PCR. Format: cell-based. The following applies: porcine chondrocytes, HS—Cf 2 hours, then TNF-α (5 ng/ml) four hours. The procedure:
as §1
TNF-α induced ADAMTS-4 is one of the factors that damage and destroy cartilage. Mix HS—Cf in different concentrations with porcine chondrocytes and react for 2 hours. Then add TNF-α (5 ng/ml) to stimulate cells for four hours. Next measure mRNA expression by Q-PCR.

Data set [7] relates to ADAMTS-5, also called Aggrecanase-2. Nature of the data set: TNF-α-induced ADAMTS-5 mRNA expression by Q-PCR. Format: cell-based. The following applies: porcine chondrocytes, HS—Cf 2 hours, then TNF-α (5 ng/ml) four hours. As to the method: as §1
TNF-α induced ADAMTS-5 is one of the factors that damage and destroy cartilage. Mix HS—Cf in different concentrations with porcine chondrocytes and react for 2 hours. Then add TNF-α (5 ng/ml) to stimulate cells for four hours. Next observe mRNA expression by Q-PCR.

Data set [8] has as its system collagen II. Nature of the data set: Loss prevention of collagen II under TNF-α stimulation, Western blot. Format: cell-based. The following applies: porcine chondrocytes, HS—Cf 24 hours, then TNF-α (5 ng/ml) 48 hours. As to the method: as §1
As shown in the figure, after mixing porcine chondrocytes with TNF-α (5 ng/ml), the amount of collagen II at different times is determined by Western Blot. It is confirmed that collagen II is degraded and lost along with the time under TNF-α stimulation. […] Then add TNF-α (5 ng/ml) to stimulate porcine chondrocytes for 48 hours. Next use western blot to measure the amount of protein.
A general note: In western blotting, separated proteins are transferred to a membrane and probed.

In data set [9] the test system is proteoglycan (aggrecan). Put plainly: Loss prevention of proteoglycan under TNF-α stimulation, Safranin-O staining. The following applies: porcine chondrocytes, 5/or 10 μM HS—Cf 24 hours, then TNF-α (5 ng/ml) 72 hours. In kind it is cell-based. As to the method: as §1
Besides collagen II, loss of proteoglycan (aggrecan) is also affected by HS—Cf. […] Then add TNF-α (5 ng/ml) to stimulate porcine chondrocytes for 72 hours. Next use Safranin-O staining to observe the amount of proteoglycan in cartilaginous tissue.

Data set [10] has as its system porcine chondrocytes. Nature of the data set: MTT cell viability assay. The following applies: any of the concentrations. Format: cell-based. The text has this:
(§3) Cytotoxicity of HS—Cf also has been checked. HS—Cf is used as a pharmaceutical composition so that cytotoxicity of HS—Cf has to be carefully considered for determining whether HS—Cf can be used for treatment of osteoarthritis. […] Thus HS—Cf is used in treatment of organisms.
For orientation: Formazan colour is commonly taken as a measure of viable cells.

Data set [11] deals with porcine chondrocytes. Nature of the data set: lactate dehydrogenase (LDH) assay. Format: cell-based. The following applies: any of the concentrations.
From the text: as §3

Turning to `O=C(Nc1cccc(C(F)(F)F)c1)c1ccccc1O` [HS—Cf, 2-hydroxy-N-[3-(trifluoromethyl)phenyl]benzamide], the iNOS expression result in data set [1] is listed as “significantly decreases iNOS expression at higher concentration”. Moreover, in data set [2], the NO production entry is given as “NO production is also reduced along with the increasing concentration”. In addition, the “MMP-1 mRNA expression” value in data set [3] was “MMP-1 expression is decreased along with the increasing concentration”. Further, the “MMP-3 mRNA expression” value in data set [4] is “decreases MMP-3 expression at higher concentration”. Moreover, the “MMP-13 mRNA expression” value in [5] is recorded as “MMP-13 expression is decreased along with the increasing concentration”. Also, the “ADAMTS-4 mRNA expression” value in data set [6] is “ADAMTS-4 expression is decreased along with the increasing concentration”. For the same molecule, the “ADAMTS-5 mRNA expression” value in data set [7] is “ADAMTS-5 expression is decreased along with the increasing concentration”. In addition, in data set [8], the “degradation and loss of collagen II” value is “degradation and loss of collagen II is under control”. For the same molecule, the “degradation and loss of proteoglycan” value in data set [9] was “degradation and loss of proteoglycan is under control”. In data set [10], the “cytotoxicity (MTT cell viability assay)” value is on record as “no obvious cytotoxic effect”. The “cytotoxicity (LDH assay)” value in [11] is “no obvious cytotoxic effect”.
